Results reported in the supplement of paper PMC10307832.

How the values were obtained:
Experiment in all cases: relative viability (nuclei count vs DMSO), 5 days (fraction); higher = more cells survive
NCI-H2347 = test system: NCI-H2347
Method in brief: (§1)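 Each reported value is a median over duplicate plates. It expresses relative viability: treated-well nuclei count divided by vehicle-well nuclei count. Lung cancer cell lines in 1536-well plates were dosed by pin tool a day after seeding, alone with one drug or with a fixed anchor-drug dose plus five library-drug doses (not always all listed) in √10 steps, and nuclei were counted after 5 days.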

EPLC-272H = test system: EPLC-272H
Method in brief: as §1

H3255 = test system: H3255
Method in brief: as §1

NCI-H661 = test system: NCI-H661
Method in brief: as §1

201T = test system: 201T
Method in brief: as §1

COR-L 105 = test system: COR-L 105
Method in brief: as §1

NCI-H2087 = test system: NCI-H2087
Method in brief: as §1

NCI-H2126 = test system: NCI-H2126
Method in brief: as §1

NCI-H2405 = test system: NCI-H2405
Method in brief: as §1

HCC-78 = test system: HCC-78
Method in brief: as §1

LC-2-ad = test system: LC-2-ad
Method in brief: as §1

NCI-H1666 = test system: NCI-H1666
Method in brief: as §1

LCLC-97TM1 = test system: LCLC-97TM1
Method in brief: as §1

NCI-H23 = test system: NCI-H23
Method in brief: as §1

NCI-H520 = test system: NCI-H520
Method in brief: as §1

HCC-827 = test system: HCC-827
Method in brief: as §1

NCI-H1915 = test system: NCI-H1915
Method in brief: as §1

NCI-H647 = test system: NCI-H647
Method in brief: as §1

PC-14 = test system: PC-14
Method in brief: as §1

RERF-LC-KJ = test system: RERF-LC-KJ
Method in brief: as §1

NCI-H650 = test system: NCI-H650
Method in brief: as §1

## O=c1cc(N2CCOCC2)oc2c(-c3cccc4c3sc3ccccc34)cccc12 + CS(=O)(=O)CCNCc1ccc(-c2ccc3ncnc(Nc4ccc(OCc5cccc(F)c5)c(Cl)c4)c3c2)o1 [Lapatinib] (partner 2 µM)
NCI-H2347; first compound 0.01 µM
  relative viability: 0.953
NCI-H2347; first compound 0.03162 µM
  relative viability: 0.965
NCI-H2347; first compound 0.1 µM
  relative viability: 0.93
NCI-H2347; first compound 0.3162 µM
  relative viability: 0.942
NCI-H2347; first compound 1 µM
  relative viability: 0.973
EPLC-272H; first compound 0.01 µM
  relative viability: 1.15
EPLC-272H; first compound 0.03162 µM
  relative viability: 1.12
EPLC-272H; first compound 0.3162 µM
  relative viability: 0.928
EPLC-272H; first compound 1 µM
  relative viability: 0.825
H3255; first compound 0.01 µM
  relative viability: 0.222
H3255; first compound 0.03162 µM
  relative viability: 0.286
H3255; first compound 0.1 µM
  relative viability: 0.258
H3255; first compound 0.3162 µM
  relative viability: 0.225
H3255; first compound 1 µM
  relative viability: 0.248
NCI-H661; first compound 0.01 µM
  relative viability: 0.487
NCI-H661; first compound 0.03162 µM
  relative viability: 0.531
NCI-H661; first compound 0.1 µM
  relative viability: 0.603
NCI-H661; first compound 0.3162 µM
  relative viability: 0.473
NCI-H661; first compound 1 µM
  relative viability: 0.522
201T; first compound 0.01 µM
  relative viability: 1.11
201T; first compound 0.03162 µM
  relative viability: 1.03
201T; first compound 0.1 µM
  relative viability: 1.06
201T; first compound 0.3162 µM
  relative viability: 0.997
201T; first compound 1 µM
  relative viability: 0.968
COR-L 105; first compound 0.01 µM
  relative viability: 0.384
COR-L 105; first compound 0.03162 µM
  relative viability: 0.327
COR-L 105; first compound 0.1 µM
  relative viability: 0.397
COR-L 105; first compound 0.3162 µM
  relative viability: 0.379
COR-L 105; first compound 1 µM
  relative viability: 0.412
NCI-H2087; first compound 0.01 µM
  relative viability: 0.847
NCI-H2087; first compound 0.03162 µM
  relative viability: 1.11
NCI-H2087; first compound 0.1 µM
  relative viability: 1.2
NCI-H2087; first compound 0.3162 µM
  relative viability: 0.938
NCI-H2087; first compound 1 µM
  relative viability: 1.17
NCI-H2126; first compound 0.01 µM
  relative viability: 0.826
NCI-H2126; first compound 0.03162 µM
  relative viability: 0.768
NCI-H2126; first compound 0.1 µM
  relative viability: 0.758
NCI-H2126; first compound 0.3162 µM
  relative viability: 0.748
NCI-H2126; first compound 1 µM
  relative viability: 0.718
NCI-H2405; first compound 0.01 µM
  relative viability: 1.12
NCI-H2405; first compound 0.03162 µM
  relative viability: 1.18
NCI-H2405; first compound 0.1 µM
  relative viability: 1.04
NCI-H2405; first compound 0.3162 µM
  relative viability: 1.2
NCI-H2405; first compound 1 µM
  relative viability: 1.11
HCC-78; first compound 0.01 µM
  relative viability: 1.03
HCC-78; first compound 0.03162 µM
  relative viability: 0.856
HCC-78; first compound 0.1 µM
  relative viability: 0.785
HCC-78; first compound 0.3162 µM
  relative viability: 0.785
HCC-78; first compound 1 µM
  relative viability: 0.652
LC-2-ad; first compound 0.01 µM
  relative viability: 1.06
LC-2-ad; first compound 0.1 µM
  relative viability: 1.03
LC-2-ad; first compound 0.3162 µM
  relative viability: 0.898
LC-2-ad; first compound 1 µM
  relative viability: 1.02
NCI-H1666; first compound 0.01 µM
  relative viability: 0.555
NCI-H1666; first compound 0.03162 µM
  relative viability: 0.735
NCI-H1666; first compound 0.1 µM
  relative viability: 0.715
NCI-H1666; first compound 0.3162 µM
  relative viability: 0.614
NCI-H1666; first compound 1 µM
  relative viability: 0.591
LCLC-97TM1; first compound 0.01 µM
  relative viability: 1.09
LCLC-97TM1; first compound 0.03162 µM
  relative viability: 1.57
LCLC-97TM1; first compound 0.3162 µM
  relative viability: 1.13
LCLC-97TM1; first compound 1 µM
  relative viability: 0.727
NCI-H23; first compound 0.01 µM
  relative viability: 0.992
NCI-H23; first compound 0.03162 µM
  relative viability: 1.09
NCI-H23; first compound 0.3162 µM
  relative viability: 1.1
NCI-H23; first compound 1 µM
  relative viability: 1.22
NCI-H520; first compound 0.01 µM
  relative viability: 0.781
NCI-H520; first compound 0.03162 µM
  relative viability: 0.825
NCI-H520; first compound 0.1 µM
  relative viability: 0.767
NCI-H520; first compound 0.3162 µM
  relative viability: 0.816
NCI-H520; first compound 1 µM
  relative viability: 0.906
HCC-827; first compound 0.01 µM
  relative viability: 0.222
HCC-827; first compound 0.03162 µM
  relative viability: 0.213
HCC-827; first compound 0.1 µM
  relative viability: 0.215
HCC-827; first compound 0.3162 µM
  relative viability: 0.186
HCC-827; first compound 1 µM
  relative viability: 0.256
NCI-H1915; first compound 0.01 µM
  relative viability: 1.05
NCI-H1915; first compound 0.03162 µM
  relative viability: 1.05
NCI-H1915; first compound 0.1 µM
  relative viability: 0.957
NCI-H1915; first compound 0.3162 µM
  relative viability: 0.977
NCI-H1915; first compound 1 µM
  relative viability: 1.05
NCI-H647; first compound 0.01 µM
  relative viability: 0.95
NCI-H647; first compound 0.03162 µM
  relative viability: 1.22
NCI-H647; first compound 0.1 µM
  relative viability: 1.04
NCI-H647; first compound 0.3162 µM
  relative viability: 1.22
NCI-H647; first compound 1 µM
  relative viability: 1
PC-14; first compound 0.01 µM
  relative viability: 0.331
PC-14; first compound 0.03162 µM
  relative viability: 0.32
PC-14; first compound 0.1 µM
  relative viability: 0.272
PC-14; first compound 0.3162 µM
  relative viability: 0.308
PC-14; first compound 1 µM
  relative viability: 0.302
RERF-LC-KJ; first compound 0.01 µM
  relative viability: 0.701
RERF-LC-KJ; first compound 0.03162 µM
  relative viability: 0.882
RERF-LC-KJ; first compound 0.1 µM
  relative viability: 0.906
RERF-LC-KJ; first compound 0.3162 µM
  relative viability: 0.902
RERF-LC-KJ; first compound 1 µM
  relative viability: 0.795
NCI-H650; first compound 0.01 µM
  relative viability: 0.769
NCI-H650; first compound 0.03162 µM
  relative viability: 0.973
NCI-H650; first compound 0.3162 µM
  relative viability: 1.17
NCI-H650; first compound 1 µM
  relative viability: 0.77
